Measured values taken from publication PMC7962536, “Isolation, Characterization, and Medicinal Potential of Polysaccharides of Morchella esculenta” (Molecules, 2021).
In brackets after ≈: the same amount, converted by molar mass.

Biological target: T1, tyrosinase enzyme from mushrooms
T1 construct: gene PPO1; native mushroom tyrosinase preparation
Assay: spectrophotometric L-DOPA oxidation, […] nm
Type: biochemical
Conditions: L-DOPA as substrate, sodium phosphate buffer pH 6.8, 37 °C, 10 min preincubation; unreliable: extrapolated below the lowest listed concentration 12.5 µg/mL

`O=c1cc(CO)occ1O` [kojic acid] showed an IC50 of 8.25 ± 0.36 µg/mL (≈ 58.1 µM).
